Measurements from ChEMBL document CHEMBL4507291 (2021).

What was measured:
[1] = target: Ephrin type-A receptor 6 (Homo sapiens) (UniProt Q9UF33)
[2] = target: Fibroblast growth factor receptor 2 (Homo sapiens) (UniProt P21802)
[3] = target: T1, G protein-coupled receptor kinase 3 (Homo sapiens) (UniProt P35626)
T1 sequence (whole entry): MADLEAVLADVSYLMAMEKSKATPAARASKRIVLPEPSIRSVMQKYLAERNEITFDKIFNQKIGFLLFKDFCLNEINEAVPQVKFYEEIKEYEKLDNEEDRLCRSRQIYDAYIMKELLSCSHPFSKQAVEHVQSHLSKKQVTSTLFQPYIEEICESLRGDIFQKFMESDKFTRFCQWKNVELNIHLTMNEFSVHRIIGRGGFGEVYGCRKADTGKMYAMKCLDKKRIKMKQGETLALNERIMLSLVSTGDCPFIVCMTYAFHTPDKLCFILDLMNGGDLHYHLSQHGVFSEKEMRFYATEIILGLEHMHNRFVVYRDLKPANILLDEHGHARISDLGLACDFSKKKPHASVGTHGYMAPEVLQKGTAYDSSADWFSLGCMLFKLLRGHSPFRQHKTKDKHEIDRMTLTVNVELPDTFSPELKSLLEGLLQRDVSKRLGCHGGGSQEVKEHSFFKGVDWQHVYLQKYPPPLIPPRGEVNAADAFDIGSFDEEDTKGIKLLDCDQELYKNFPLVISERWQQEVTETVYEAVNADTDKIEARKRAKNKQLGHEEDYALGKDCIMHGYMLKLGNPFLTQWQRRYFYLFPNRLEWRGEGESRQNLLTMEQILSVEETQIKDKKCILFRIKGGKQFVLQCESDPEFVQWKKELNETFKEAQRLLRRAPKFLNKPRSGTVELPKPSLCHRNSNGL

[4] = target: T2, Mitogen-activated protein kinase kinase kinase 7 (Homo sapiens) (UniProt O43318)
T2 sequence (whole entry): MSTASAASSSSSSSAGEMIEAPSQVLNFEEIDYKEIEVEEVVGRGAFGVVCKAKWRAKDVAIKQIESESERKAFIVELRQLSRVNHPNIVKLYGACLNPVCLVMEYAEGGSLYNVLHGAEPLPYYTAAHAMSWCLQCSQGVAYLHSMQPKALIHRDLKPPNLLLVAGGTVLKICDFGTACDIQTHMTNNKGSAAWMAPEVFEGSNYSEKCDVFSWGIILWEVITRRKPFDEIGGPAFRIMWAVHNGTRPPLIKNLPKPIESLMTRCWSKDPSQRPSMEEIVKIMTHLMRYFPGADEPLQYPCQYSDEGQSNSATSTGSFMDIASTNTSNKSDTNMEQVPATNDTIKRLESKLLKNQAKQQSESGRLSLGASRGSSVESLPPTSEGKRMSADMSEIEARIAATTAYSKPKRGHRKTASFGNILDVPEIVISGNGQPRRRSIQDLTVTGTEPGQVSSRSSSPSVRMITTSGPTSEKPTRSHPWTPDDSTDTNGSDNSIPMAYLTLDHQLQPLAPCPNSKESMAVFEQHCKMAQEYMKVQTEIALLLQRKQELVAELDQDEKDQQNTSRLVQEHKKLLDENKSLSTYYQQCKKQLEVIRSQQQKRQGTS

[5] = target: T3, Mitogen-activated protein kinase kinase kinase kinase 2 (Homo sapiens) (UniProt Q12851)
T3 sequence (whole entry): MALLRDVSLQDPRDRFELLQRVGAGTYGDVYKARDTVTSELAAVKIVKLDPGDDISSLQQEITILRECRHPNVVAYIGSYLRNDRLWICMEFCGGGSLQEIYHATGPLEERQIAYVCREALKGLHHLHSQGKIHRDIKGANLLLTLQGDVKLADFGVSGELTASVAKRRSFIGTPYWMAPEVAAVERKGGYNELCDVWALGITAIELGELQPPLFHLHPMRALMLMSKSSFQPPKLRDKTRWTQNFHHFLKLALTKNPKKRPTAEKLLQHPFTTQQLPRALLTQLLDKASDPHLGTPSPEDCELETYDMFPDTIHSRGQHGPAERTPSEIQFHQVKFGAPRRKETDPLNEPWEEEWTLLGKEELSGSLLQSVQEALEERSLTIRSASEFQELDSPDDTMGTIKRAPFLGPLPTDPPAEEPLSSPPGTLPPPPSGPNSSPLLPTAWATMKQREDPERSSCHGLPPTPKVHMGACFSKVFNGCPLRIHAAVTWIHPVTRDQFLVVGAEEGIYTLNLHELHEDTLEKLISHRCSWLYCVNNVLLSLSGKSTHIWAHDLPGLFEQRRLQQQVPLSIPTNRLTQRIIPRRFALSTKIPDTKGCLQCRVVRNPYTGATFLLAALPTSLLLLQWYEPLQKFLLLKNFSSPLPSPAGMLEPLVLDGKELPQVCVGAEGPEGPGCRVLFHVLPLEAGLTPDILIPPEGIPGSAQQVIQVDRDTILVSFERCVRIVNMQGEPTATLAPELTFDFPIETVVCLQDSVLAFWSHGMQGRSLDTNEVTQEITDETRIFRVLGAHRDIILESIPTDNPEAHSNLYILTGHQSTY

[6] = target: Focal adhesion kinase 1 (Homo sapiens) (UniProt Q05397)
Sequence of Focal adhesion kinase 1 (Homo sapiens) (Q05397 2-1052 limits assumed): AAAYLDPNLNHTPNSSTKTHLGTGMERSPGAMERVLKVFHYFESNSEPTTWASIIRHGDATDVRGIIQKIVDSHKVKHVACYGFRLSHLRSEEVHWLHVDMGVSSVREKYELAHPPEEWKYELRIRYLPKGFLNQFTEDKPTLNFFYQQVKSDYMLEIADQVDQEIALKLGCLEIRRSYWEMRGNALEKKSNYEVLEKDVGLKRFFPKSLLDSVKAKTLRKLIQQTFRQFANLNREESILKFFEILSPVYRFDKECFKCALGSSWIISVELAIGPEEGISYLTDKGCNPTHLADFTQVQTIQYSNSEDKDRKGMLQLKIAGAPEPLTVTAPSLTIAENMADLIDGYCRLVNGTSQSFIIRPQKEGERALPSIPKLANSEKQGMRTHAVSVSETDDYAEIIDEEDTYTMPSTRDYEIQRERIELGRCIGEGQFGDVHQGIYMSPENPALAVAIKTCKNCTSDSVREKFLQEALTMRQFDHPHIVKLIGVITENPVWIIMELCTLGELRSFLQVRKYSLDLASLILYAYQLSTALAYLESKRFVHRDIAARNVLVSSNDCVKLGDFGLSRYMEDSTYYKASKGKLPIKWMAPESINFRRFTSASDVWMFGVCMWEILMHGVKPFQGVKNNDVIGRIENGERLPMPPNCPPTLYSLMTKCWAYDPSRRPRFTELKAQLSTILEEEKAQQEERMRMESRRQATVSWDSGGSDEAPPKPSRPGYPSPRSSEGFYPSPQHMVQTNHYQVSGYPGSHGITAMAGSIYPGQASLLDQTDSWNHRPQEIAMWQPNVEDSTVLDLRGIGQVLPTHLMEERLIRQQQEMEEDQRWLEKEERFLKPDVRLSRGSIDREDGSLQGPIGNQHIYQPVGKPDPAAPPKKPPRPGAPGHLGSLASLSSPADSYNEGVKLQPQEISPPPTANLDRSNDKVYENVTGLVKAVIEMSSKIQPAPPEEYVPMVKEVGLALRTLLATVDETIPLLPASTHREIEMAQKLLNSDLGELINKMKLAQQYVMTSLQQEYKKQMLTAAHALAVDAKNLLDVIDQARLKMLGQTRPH

[7] = target: Bone morphogenetic protein receptor type-1B (Homo sapiens) (UniProt O00238)
Sequence of Bone morphogenetic protein receptor type-1B (Homo sapiens) (O00238 whole entry): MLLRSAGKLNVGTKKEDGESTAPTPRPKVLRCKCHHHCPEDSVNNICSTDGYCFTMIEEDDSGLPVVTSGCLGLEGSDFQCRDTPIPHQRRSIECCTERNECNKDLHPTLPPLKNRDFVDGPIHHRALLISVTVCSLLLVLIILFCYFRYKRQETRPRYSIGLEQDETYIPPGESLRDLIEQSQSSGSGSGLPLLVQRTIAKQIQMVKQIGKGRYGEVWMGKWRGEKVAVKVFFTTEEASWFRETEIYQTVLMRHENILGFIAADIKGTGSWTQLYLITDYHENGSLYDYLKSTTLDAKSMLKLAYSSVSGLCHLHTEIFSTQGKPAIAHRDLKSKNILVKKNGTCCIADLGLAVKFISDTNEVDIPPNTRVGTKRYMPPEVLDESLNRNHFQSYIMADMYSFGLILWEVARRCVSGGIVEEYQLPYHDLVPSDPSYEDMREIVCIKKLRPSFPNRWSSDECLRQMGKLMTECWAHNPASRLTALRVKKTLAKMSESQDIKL

[8] = target: Ribosomal protein S6 kinase alpha-3 (Homo sapiens) (UniProt P51812)
Sequence of Ribosomal protein S6 kinase alpha-3 (Homo sapiens) (P51812 whole entry): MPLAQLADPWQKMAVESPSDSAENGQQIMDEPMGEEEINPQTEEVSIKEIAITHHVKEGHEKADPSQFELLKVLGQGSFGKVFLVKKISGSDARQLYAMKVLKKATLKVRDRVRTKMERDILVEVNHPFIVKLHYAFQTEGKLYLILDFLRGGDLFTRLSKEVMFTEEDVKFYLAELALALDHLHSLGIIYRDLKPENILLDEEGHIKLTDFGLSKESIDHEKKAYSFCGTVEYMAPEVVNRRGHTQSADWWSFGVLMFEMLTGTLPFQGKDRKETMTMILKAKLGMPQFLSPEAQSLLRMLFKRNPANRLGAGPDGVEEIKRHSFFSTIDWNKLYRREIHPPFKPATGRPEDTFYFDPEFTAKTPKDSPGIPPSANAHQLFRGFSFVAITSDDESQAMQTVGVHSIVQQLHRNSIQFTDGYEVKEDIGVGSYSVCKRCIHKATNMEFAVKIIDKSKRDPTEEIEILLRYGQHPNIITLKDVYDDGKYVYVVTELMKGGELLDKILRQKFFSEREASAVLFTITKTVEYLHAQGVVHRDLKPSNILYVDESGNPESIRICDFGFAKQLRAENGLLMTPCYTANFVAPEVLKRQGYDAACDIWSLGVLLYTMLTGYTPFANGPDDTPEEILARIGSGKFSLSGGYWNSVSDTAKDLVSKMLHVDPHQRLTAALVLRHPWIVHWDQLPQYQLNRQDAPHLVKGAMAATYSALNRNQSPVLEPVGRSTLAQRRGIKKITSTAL

[9] = target: Calcium/calmodulin-dependent protein kinase type IV (Homo sapiens) (UniProt Q16566)
Sequence of Calcium/calmodulin-dependent protein kinase type IV (Homo sapiens) (Q16566 whole entry): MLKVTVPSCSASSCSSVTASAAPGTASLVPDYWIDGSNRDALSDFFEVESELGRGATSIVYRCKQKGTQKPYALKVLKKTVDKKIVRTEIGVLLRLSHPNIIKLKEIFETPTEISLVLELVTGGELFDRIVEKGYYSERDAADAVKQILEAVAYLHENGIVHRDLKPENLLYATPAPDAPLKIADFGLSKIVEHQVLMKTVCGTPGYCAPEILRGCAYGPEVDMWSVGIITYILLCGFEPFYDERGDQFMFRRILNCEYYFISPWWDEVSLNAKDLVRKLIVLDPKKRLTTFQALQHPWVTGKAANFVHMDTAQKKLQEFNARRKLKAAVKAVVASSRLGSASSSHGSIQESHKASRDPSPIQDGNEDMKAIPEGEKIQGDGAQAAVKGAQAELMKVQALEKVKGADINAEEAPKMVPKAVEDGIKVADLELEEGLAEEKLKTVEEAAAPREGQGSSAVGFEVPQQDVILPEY

[10] = target: Cyclin-dependent kinase-like 5 (Homo sapiens) (UniProt O76039)
[11] = target: Cyclin-dependent kinase 2 homolog (Plasmodium falciparum (isolate 3D7)) (UniProt P61075)
Sequence of Cyclin-dependent kinase 2 homolog (Plasmodium falciparum (isolate 3D7)) (P61075 whole entry): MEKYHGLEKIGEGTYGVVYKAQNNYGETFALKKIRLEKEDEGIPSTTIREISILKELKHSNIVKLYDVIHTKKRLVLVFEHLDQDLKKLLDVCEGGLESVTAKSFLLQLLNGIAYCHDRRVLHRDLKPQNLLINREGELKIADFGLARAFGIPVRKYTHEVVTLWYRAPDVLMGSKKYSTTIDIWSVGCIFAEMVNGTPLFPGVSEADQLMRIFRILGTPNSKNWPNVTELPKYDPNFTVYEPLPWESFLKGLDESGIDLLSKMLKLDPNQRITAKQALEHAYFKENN

[12] = Compound concentration 1000.0 nM
[13] = Compound concentration 100.0 nM

Measured: residual activity

Sequence of Ephrin type-A receptor 6 (Homo sapiens) (Q9UF33 whole entry): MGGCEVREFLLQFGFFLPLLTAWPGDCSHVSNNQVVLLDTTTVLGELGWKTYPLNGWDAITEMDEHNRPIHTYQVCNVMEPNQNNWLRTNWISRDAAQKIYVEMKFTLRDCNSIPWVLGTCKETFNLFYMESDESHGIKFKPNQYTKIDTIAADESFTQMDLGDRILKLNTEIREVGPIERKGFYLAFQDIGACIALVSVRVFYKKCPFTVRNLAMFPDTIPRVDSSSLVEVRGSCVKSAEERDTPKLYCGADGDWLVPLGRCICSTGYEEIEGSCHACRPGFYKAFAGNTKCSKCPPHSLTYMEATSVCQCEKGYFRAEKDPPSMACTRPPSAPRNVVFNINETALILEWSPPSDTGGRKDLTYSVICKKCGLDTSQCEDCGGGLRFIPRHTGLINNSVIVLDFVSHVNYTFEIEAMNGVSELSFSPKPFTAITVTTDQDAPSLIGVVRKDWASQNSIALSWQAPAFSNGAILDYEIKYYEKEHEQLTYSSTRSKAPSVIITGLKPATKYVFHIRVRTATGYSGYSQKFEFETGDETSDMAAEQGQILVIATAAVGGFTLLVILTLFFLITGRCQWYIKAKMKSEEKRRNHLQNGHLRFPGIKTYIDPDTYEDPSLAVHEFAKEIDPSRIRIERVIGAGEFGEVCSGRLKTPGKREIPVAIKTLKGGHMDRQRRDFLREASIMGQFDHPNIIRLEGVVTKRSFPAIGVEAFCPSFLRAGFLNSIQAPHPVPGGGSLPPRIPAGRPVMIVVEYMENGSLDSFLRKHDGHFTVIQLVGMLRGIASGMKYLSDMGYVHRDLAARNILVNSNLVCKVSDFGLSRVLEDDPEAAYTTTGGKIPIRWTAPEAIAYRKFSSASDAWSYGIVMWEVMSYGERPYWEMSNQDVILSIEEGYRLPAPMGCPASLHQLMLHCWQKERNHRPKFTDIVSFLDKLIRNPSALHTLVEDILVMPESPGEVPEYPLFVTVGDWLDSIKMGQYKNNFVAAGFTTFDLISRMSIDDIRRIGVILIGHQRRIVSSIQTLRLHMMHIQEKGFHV
Sequence of Fibroblast growth factor receptor 2 (Homo sapiens) (P21802 22-821 limits assumed): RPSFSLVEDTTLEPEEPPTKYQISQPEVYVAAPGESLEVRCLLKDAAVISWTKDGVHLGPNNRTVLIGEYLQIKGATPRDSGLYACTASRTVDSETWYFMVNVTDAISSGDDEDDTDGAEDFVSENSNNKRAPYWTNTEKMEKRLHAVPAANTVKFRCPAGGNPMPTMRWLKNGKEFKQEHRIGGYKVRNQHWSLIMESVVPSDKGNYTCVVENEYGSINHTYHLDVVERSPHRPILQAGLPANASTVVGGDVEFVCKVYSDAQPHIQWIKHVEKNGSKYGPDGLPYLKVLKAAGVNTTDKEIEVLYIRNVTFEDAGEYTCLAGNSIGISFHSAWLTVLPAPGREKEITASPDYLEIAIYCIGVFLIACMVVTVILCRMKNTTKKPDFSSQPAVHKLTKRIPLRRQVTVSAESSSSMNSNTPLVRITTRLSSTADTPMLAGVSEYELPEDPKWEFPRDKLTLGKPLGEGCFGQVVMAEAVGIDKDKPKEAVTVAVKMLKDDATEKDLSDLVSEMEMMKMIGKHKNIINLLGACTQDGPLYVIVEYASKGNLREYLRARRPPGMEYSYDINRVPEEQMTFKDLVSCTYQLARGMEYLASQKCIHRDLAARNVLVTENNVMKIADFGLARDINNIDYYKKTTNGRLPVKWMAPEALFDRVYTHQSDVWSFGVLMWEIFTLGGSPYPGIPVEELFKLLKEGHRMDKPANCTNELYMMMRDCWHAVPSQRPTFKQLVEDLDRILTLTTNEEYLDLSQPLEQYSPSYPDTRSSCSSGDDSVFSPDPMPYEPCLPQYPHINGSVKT

C[C@@H]1CN(c2cc(-c3nn(C)c4ccc(OC5(C)CC5)cc34)ncn2)C[C@H](C)O1 [MLi-2-NC]
inactive: [1]; [12] 100% | [2]; [12] 100% | [3]; [12] 69% | [4]; [12] 89% | [5]; [12] 81% | [6]; [12] 95% | [7]; [12] 77% | [8]; [12] 91% | [9]; [12] 67% | [10]; [12] 64% | [11]; [12] 94%

C[C@@H]1CN(c2cc(-c3n[nH]c4ccc(OC5(C)CC5)cc34)ncn2)C[C@H](C)O1 [MLi-2]
inactive: [1]; [13] 90% | [2]; [13] 96% | [3]; [13] 91% | [4]; [13] 70% | [5]; [13] 76% | [6]; [13] 81% | [7]; [13] 81% | [8]; [13] 85% | [9]; [13] 78% | [10]; [13] 72% | [11]; [13] 80%
